Data taken from ChEMBL document CHEMBL4334550, “Toward Orally Absorbed Prodrugs of the Antibiotic Aztreonam. Design of Novel Prodrugs of Sulfate Containing Drugs. Part 2” (ACS Med Chem Lett, 2020).

What was measured:
[1] = biological target: T1, Liver carboxylesterase 1 (Homo sapiens, UniProt P23141); experiment: Prodrug conversion assessed as CES1 (unknown origin) mediated aztreonam release in 2.5% acetonitrile in 0.05M citrate buffer at 0.5 mg/ml at pH 4.7 at 37degC measured immediately in presence of 150 units/ml of CES1 enzyme by HPLC analysis; type: ADME; details: BLD = below limit of detection
T1 sequence (P23141 whole entry): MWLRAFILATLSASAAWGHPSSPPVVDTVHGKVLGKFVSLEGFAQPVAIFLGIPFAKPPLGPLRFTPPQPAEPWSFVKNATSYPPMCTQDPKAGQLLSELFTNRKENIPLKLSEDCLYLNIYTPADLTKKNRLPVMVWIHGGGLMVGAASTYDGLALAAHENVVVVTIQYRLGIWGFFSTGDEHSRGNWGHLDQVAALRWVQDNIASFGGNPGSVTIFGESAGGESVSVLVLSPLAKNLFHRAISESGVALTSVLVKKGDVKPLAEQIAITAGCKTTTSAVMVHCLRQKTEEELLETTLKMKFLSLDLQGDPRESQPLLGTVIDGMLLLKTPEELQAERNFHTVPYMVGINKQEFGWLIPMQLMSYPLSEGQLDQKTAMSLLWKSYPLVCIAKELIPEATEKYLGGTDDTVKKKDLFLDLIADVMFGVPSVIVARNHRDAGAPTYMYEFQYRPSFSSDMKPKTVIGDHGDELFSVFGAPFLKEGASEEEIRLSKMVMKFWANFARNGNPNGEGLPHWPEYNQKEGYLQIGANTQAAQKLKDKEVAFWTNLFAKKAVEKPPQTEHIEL

[2] = biological target: T1, Liver carboxylesterase 1; experiment: Prodrug conversion assessed as CES1 (unknown origin) mediated aztreonam release in 2.5% acetonitrile in 0.05M citrate buffer at 0.5 mg/ml at pH 4.7 at 37degC after 20 mins in presence of 150 units/ml of CES1 enzyme by HPLC analysis; type: ADME; details: pH 4.7, 20 min
[3] = biological target: T1, Liver carboxylesterase 1; experiment: Prodrug conversion assessed as CES1 (unknown origin) mediated aztreonam release in 2.5% acetonitrile in 0.05M citrate buffer at 0.5 mg/ml at pH 4.7 at 37degC after 10 mins in presence of 150 units/ml of CES1 enzyme by HPLC analysis; type: ADME; details: pH 4.7, 10 min
[4] = Stability of the compound in 2.5% acetonitrile in 0.05M citrate buffer assessed as aztreonam and beta-lactam ring-opened prodrug intermediate release at 0.5 mg/ml at pH 4.7 at 37degC by HPLC analysis; type: physicochemical
[5] = biological target: T1, Liver carboxylesterase 1; experiment: Prodrug conversion assessed as CES1 (unknown origin) mediated aztreonam release in 2.5% acetonitrile in 0.05M citrate buffer at 0.5 mg/ml at pH 4.7 at 37degC after 30 mins in presence of 150 units/ml of CES1 enzyme by HPLC analysis; type: ADME; details: pH 4.7, 0.5 h
[6] = biological target: T1, Liver carboxylesterase 1; experiment: Prodrug conversion assessed as CES1 (unknown origin) mediated aztreonam and beta-lactam ring-opened prodrug intermediate release in 2.5% acetonitrile in 0.05M citrate buffer at 0.5 mg/ml at pH 4.7 at 37degC in presence of CES1 at lower concentration by HPLC analysis; type: ADME
[7] = biological target: T1, Liver carboxylesterase 1; experiment: Prodrug conversion assessed as CES1 (unknown origin) mediated aztreonam release in 2.5% acetonitrile in 0.05M citrate buffer at 0.5 mg/ml at pH 4.7 at 37degC after 5 mins in presence of 150 units/ml of CES1 enzyme by HPLC analysis; type: ADME; details: pH 4.7, 5 min
[8] = biological target: T1, Liver carboxylesterase 1; experiment: Prodrug conversion assessed as CES1 (unknown origin) mediated aztreonam release in 2.5% acetonitrile in 0.05M citrate buffer at 0.5 mg/ml at pH 4.7 at 37degC after 2 mins in presence of 150 units/ml of CES1 enzyme by HPLC analysis; type: ADME; details: pH 4.7, 2 min
[9] = biological target: T1, Liver carboxylesterase 1; experiment: Prodrug conversion assessed as CES1 (unknown origin) mediated aztreonam release in 2.5% acetonitrile in 0.05M citrate buffer at 0.5 mg/ml at pH 4.7 at 37degC after 1 min in presence of 150 units/ml of CES1 enzyme by HPLC analysis; type: ADME; details: pH 4.7, 1 min, BLD = below limit of detection
[10] = Oral bioavailability in human at 500 mg administered twice as 250 mg tablet formulation measured 16 hrs post dose; type: ADME, organism-based; details: in vivo
[11] = Oral bioavailability in human at 500 mg administered as solution measured 16 hrs post dosing; type: ADME, organism-based; details: in vivo

SMILES	Drug metabolism [1]	Drug metabolism [2]	Drug metabolism [3]	Stability [4]	Drug metabolism [5]	Drug metabolism [6]	Drug metabolism [7]	Drug metabolism [8]	Drug metabolism [9]	bioavailability [10]	bioavailability [11]
CCOC(=O)CCC(C)(C)COS(=O)(=O)N1C(=O)[C@@H](NC(=O)/C(=N\OC(C)(C)C(=O)O)c2csc(N)n2)[C@@H]1C.O=C(O)C(F)(F)F	Bld	90%	86%	Unstable	90%	Metabolite_Detected	76%	45%			
CCOC(=O)C(C)(C)COS(=O)(=O)N1C(=O)[C@@H](NC(=O)/C(=N\OC(C)(C)C(=O)O)c2csc(N)n2)[C@@H]1C.O=C(O)C(F)(F)F	Bld	23%	14%	Unstable	28%	Metabolite_Detected	8%	4%	Bld		
C[C@H]1[C@H](NC(=O)/C(=N\OC(C)(C)C(=O)O)c2csc(N)n2)C(=O)N1S(=O)(=O)OCC(C)(C)CCOC(=O)C(C)(C)C.O=C(O)C(F)(F)F	Bld	> 95%	> 95%	Unstable	> 95%	Metabolite_Detected	> 95%	> 95%			
C[C@H]1[C@H](NC(=O)/C(=N\OC(C)(C)C(=O)O)c2csc(N)n2)C(=O)N1S(=O)(=O)O [AZTREONAM]										< 1%	< 1%
